Data from PMC5656836, “Distinct activation mechanisms trigger the trypanocidal activity of DNA damaging prodrugs” (Molecular Microbiology, 2017).
Where two headings read alike, the source gives them in different places.

Tests used:
Assay type in all cases: cell-based
[1] = test system: bloodstream form T. brucei; experiment: Growth inhibition of wild type / control bloodstream form T. brucei (resazurin); conditions: for EC50: Trypanosoma brucei
L. major promastigotes = experiment: Growth inhibition of L. major promastigotes (resazurin); conditions: for EC50: Leishmania major, 144 h, read-out: L. major EC50
T. cruzi epimastigotes = experiment: Growth inhibition of T. cruzi epimastigotes (resazurin); conditions: for EC50: Trypanosoma cruzi, 336 h, read-out: T. cruzi EC50
[2] = test system: differentiated THP‐1 cells; experiment: Mammalian inhibition assay, differentiated THP-1 cells; conditions: Homo sapiens, read-out: THP‐1 EC50
[3] = test system: T. brucei Tbsnm1 null mutants (ΔTbsnm1); experiment: microbe, parasite or virus in culture; conditions: for EC50: Trypanosoma brucei, read-out: EC50 ΔTbsnm1
[4] = test system: T. brucei over expressing TbCPR2 (Tbcpr2++); experiment: microbe, parasite or virus in culture; conditions: for EC50: Trypanosoma brucei, read-out: EC50 Tbcpr2++
[5] = test system: T. brucei over expressing TbNTR (Tbntr++); experiment: microbe, parasite or virus in culture; conditions: for EC50: Trypanosoma brucei, read-out: EC50 Tbntr++
[6] = 72 h, bloodstream form, 3 days, Table 1, activity of some compounds previously reported (Hall et al., 2012), read-out: T. brucei EC50
[7] = 72 h, differentiated THP‐1 cells, 3 days
[8] = Selectivity Index: fold difference in EC50 of THP‐1 line relative to parasite
[9] = Table 2, parasites expressing wild type levels, read-out: EC50 Control
[10] = Table 4, wild type T. brucei, read-out: EC50 Control

Structure (SMILES) | EC50 [1, 6] [nM] | EC50 (L. major promastigotes; promastigotes, 6 days) [nM] | EC50 (T. cruzi epimastigotes; epimastigotes, 14 days) [nM] | T. cruzi SI (T. cruzi epimastigotes) | EC50 ([1]; 72 h, read-out: T. brucei EC50) [nM] | EC50 (L. major promastigotes) [nM] | EC50 (T. cruzi epimastigotes) [nM] | also measured
O=C1C(Br)=C(N2CC2)C(=O)C(Br)=C1N1CC1 [ABQ3] | 400 ± 30 | 199 ± 4 | 6200 ± 1160 |  |  |  |  | 
O=C1C(F)=C(N2CC2)C(=O)C(F)=C1N1CC1 [ABQ4] | 1180 ± 160 | 663 ± 6 | 106 ± 25 |  |  |  |  | 
COC1=C(N2CC2)C(=O)C(OC)=C(N2CC2)C1=O [ABQ6] | 283 ± 41 | 664 ± 2 | 205 ± 53 | 5 |  |  |  | EC50 [2, 7]: 1070 ± 159 nM
CCCOC1=C(N2CC2)C(=O)C(OCCC)=C(N2CC2)C1=O [ABQ8] |  |  |  | 2 | 670 ± 30 | 1870 ± 184 | 1300 ± 108 | EC50 ([2]; THP-1, 72 h): 2950 ± 770 nM; T. brucei SI [1]: 4; L. major SI (L. major promastigotes): 2
CC(C)NC1=C(N2CC2)C(=O)C(NC(C)C)=C(N2CC2)C1=O [ABQ13] |  |  |  |  | > 10000 | > 10000 | 5550 ± 240 | 
O=C1C(F)=C(N2CC2)C(=O)C(N2CCOCC2)=C1N1CC1 [ABQ14] |  |  |  |  | > 10000 | 2270 ± 17 | 445 ± 30 | 
CC(=O)NC1=C(N2CC2)C(=O)C(NC(C)=O)=C(N2CC2)C1=O [ABQ15] |  |  |  |  | > 10000 | > 10000 | 3310 ± 200 | 
C[C@@H]1CN1C1=CC(=O)C(N2C[C@H]2C)=CC1=O [ABQ23] | 2300 ± 60 | 348 ± 166 | 2180 ± 670 | <1 |  |  |  | EC50 [2, 7]: < 400 nM; Ratio of EC50 values ΔTbsnm1 / control [3]: 1.01; Susceptibility of Tbsnm1 null mutants relative to wild type / control (fold more susceptible) [3]: no significant difference; EC50 [3]: 2410 ± 160 nM; Fold difference in EC50 Tbcpr2++ relative to control [4]: 3556 ± 96 (1.21); EC50 [4]: 3560 nM; T. brucei SI [1, 8]: <1; EC50 [1, 9]: 2940 ± 420 nM; EC50 [1, 10]: 2300 ± 60 nM; Fold difference in EC50 Tbntr++ relative to control [5]: 3315 ± 540 (1.13); EC50 [5]: 3320 nM
C[C@H]1CN1C1=CC(=O)C(N2C[C@@H]2C)=CC1=O [ABQ24] | 1470 ± 120 | 473 ± 123 | 37 ± 1 | <11 |  |  |  | EC50 [2, 7]: < 400 nM; Ratio of EC50 values ΔTbsnm1 / control [3]: 0.77; Susceptibility of Tbsnm1 null mutants relative to wild type / control (fold more susceptible) [3]: no significant difference; EC50 [3]: 1130 ± 100 nM; Fold difference in EC50 Tbcpr2++ relative to control [4]: 1698 ± 23 (1.16); EC50 [4]: 1700 nM; T. brucei SI [1, 8]: <1; EC50 [1, 9]: 1470 ± 120 nM; EC50 [1, 10]: 1470 ± 120 nM; L. major SI (L. major promastigotes): <1; Fold difference in EC50 Tbntr++ relative to control [5]: 2090 ± 160 (1.42); EC50 [5]: 2090 nM
CC1CN1C1=C(Br)C(=O)C(N2CC2C)=C(Br)C1=O (stereo not shown) [ABQ25] | > 10000 | 80 ± 6 |  |  |  |  |  | L. major EC50 (L. major promastigotes; promastigotes, 6 days): high potency
CC1(C)CN1C1=C(Br)C(=O)C(N2CC2(C)C)=C(Br)C1=O [ABQ26] |  |  |  |  | > 10000 | 2360 ± 230 | 8640 ± 736 | 
CC1CN1C1=C(Cl)C(=O)C(N2CC2C)=C(Cl)C1=O (stereo not shown) [ABQ27] | > 10000 | 210 ± 10 | 620 ± 180 |  |  |  |  | 
CC1CN1C1=C(F)C(=O)C(N2CC2C)=C(F)C1=O (stereo not shown) [ABQ29] |  | 175 ± 5 | 975 ± 25 |  |  |  |  | 
CC1(C)CN1C1=C(F)C(=O)C(N2CC2(C)C)=C(F)C1=O [ABQ30] |  |  |  | 4 | 7400 ± 190 | 174 ± 10 | 980 ± 25 | EC50 ([2]; THP-1, 72 h): 3750 ± 320 nM; T. brucei SI [1]: <1; EC50 ([1]; read-out: EC50 Control): 7400 ± 190 nM; L. major SI (L. major promastigotes): 22; Fold difference in EC50 Tbntr++ relative to control [5]: 8670 ± 1670 (1.12); EC50 [5]: 8670 nM
